According to patent publication US3968204A, “Antibiotic A-2315” (priority 1975, dated 1976):
In brackets after ≈: the same amount, converted by molar mass.

Assays:
[1] = tested on: Staphylococcus aureus 3130; assay: Disc-plate MIC; conditions: Disc-Plate Method; benzylpenicillin-resistant, methicillin-resistant
Salmonella typhosa = assay: Disc-plate MIC; conditions: Disc-Plate Method
Mycoplasma gallisepticum = assay: Activity in chicks infected with Mycoplasma gallisepticum; format: in vivo, chickens
Method: The antibiotic factor was prepared in polyethylene glycol 200 and injected subcutaneously in the neck.

[2] = tested on: Staphylococcus aureus 3055; assay: Protection of mice against experimental bacterial infection; format: in vivo; conditions: Staphylococcus aureus, 3055, sc, subcutaneous, two doses
Method: (§1) When two doses each of A-2315 factors were administered to mice in illustrative infections, the ED50 values [effective dose in mg/kg to protect 50 percent of the test aninals; see Warren Wick, et al., J. Bacteriol.
^ 2 Infecting challenges: S. aureus 3.16 × LD50 (ip)

[3] = tested on: cariogenic Streptococcus sp.; assay: Artificial plaque glass rod test; format: cell-based; conditions: 0.1% solution, contact with plaque-encrusted rods as little as 5 minutes
Method: Narrow glass rods, which extend below the surface of the nutrient broth, are inserted into the tubes. After incubation at 37°C. overnight, a layer of artificial plaque (primarily cells and dextran) forms on the surface of the rods. The rods are then transferred to solutions containing varying concentrations of test compound and are allowed to remain in contact with these solutions for periods of 5, 10, and 15 minutes. After the appropriate time has elapsed, the rods are rinsed by dipping in sterile, deionized water; the rods are then incubated overnight at 37°C. in uninoculated medium containing sucrose and bromothymol blue. Growth is detected by observing the color change of bromothymol blue from green to yellow, due to acid production by the organisms when grown in a sucrose-containing medium.

[4] = tested on: bean rust (Uromyces phaseoli var. typica); assay: Plant-fungicidal activity on bean plants; format: in vivo; conditions: 400 ppm
Text: In yet another aspect of the invention, the A-2315 antibiotics are useful as plant-fungicidal agents.

[5] = tested on: experimental bacterial infections; assay: In vivo antimicrobial action in mice; conditions: subcutaneous injection
Method: as §1

Electrometric titration = format: physicochemical; conditions: 66 percent dimethylformamide in water
Method: Antibiotic A-2315 factor A is a white, amorphous solid, having a molecular weight of 503.2638, as determined by mass spectrometry, and an elemental analysis as follows: 61.51 percent carbon, 7.51 percent hydrogen, 8.69 percent nitrogen, and 21.53 percent oxygen. […] The specific rotation of A-2315 factor A is -132° when determined at a temperature of 27°C. in methanol in which the concentration of the antibiotic is 0.375 percent on a weight per volume basis.
Antibiotic A-2315 factor B is a white, amorphous solid, having a molecular weight of 501, as determined by mass spectrometry, and an elemental analysis as follows: 61.81 percent carbon, 7.02 percent hydrogen, 8.81 percent nitrogen, and 21.42 percent oxygen.
Antibiotic A-2315 factor C is a white, amorphous solid, having a molecular weight of 487, as determined by mass spectrometry, and an elemental analysis as follows: 61.04 percent carbon, 7.00 percent hydrogen, 7.96 percent nitrogen, and 22.61 percent oxygen. Based on elemental analysis and molecular weight, an empirical formula of C25 H33 N3 O7 is assigned to factor C.

[6] = tested on: Fusobacterium necrophorum; assay: MIC, anaerobic bacteria; format: cell-based
[7] = Growth performance of growing chicks; format: in vivo; conditions: 45.4 grams/ton in diet
Method: Still another useful property of the A-2315 antibiotics is their ability to improve growth performance in animals. For example, when A-2315 factor A was added to the diet of growing chicks at a level of 45.4 grams/ton, the average weight gain after 10 days was 159 grams, as compared with an average weight gain of 148 grams for the control group. The feed-conversion efficiency (feed/gain) for chickens fed antibiotic A-2315 factor A was 1.44; in contrast, the feed-conversion efficiency for the control group was 1.53.

Streptococcus pyogenes [8] = assay: Disc-plate MIC; conditions: Disc-Plate Method
Fusobacterium nucleatum = assay: MIC, anaerobic bacteria; format: cell-based
Streptococcus pyogenes [9] = assay: Protection of mice against experimental bacterial infection; format: in vivo; conditions: sc, subcutaneous, two doses
Method: as §1

Clostridium inocuum = assay: MIC, anaerobic bacteria; format: cell-based
Clostridium ramosum = assay: MIC, anaerobic bacteria; format: cell-based; conditions: Thomasclavelia ramosa
[10] = tested on: Mycoplasma gallisepticum isolate 38502 (tylosin sensitive); assay: Broth-dilution MIC; format: cell-based; conditions: Mycoplasmoides gallisepticum
Text: (§2) Another useful property of the A-2315 antibiotics is activity against Mycoplasma gallisepticum, an organism pathogenic for poultry. Of particular interest is the activity of the A-2315 antibiotics against strains of this organism that are resistant to tylosin. The minimal inhibitory concentrations of A-2315 factor A, as determined by in vitro broth-dilution studies, are summarized in Table V below: […]

[11] = tested on: Mycoplasma gallisepticum isolate 42854 (tylosin resistant); assay: Broth-dilution MIC; format: cell-based; conditions: Mycoplasmoides gallisepticum
Text: as §2

[12] = tested on: Mycoplasma gallisepticum isolate 43480 (tylosin resistant); assay: Broth-dilution MIC; format: cell-based; conditions: Mycoplasmoides gallisepticum
Text: as §2

[13] = tested on: Mycoplasma gallisepticum isolate 34159 (tylosin resistant); assay: Broth-dilution MIC; format: cell-based; conditions: Mycoplasmoides gallisepticum
Text: as §2

[14] = tested on: Mycoplasma gallisepticum isolate 41313 (tylosin resistant); assay: Broth-dilution MIC; format: cell-based; conditions: Mycoplasmoides gallisepticum
Text: as §2

Bacillus subtilis = assay: Disc-plate MIC; conditions: Disc-Plate Method
Treponema hyodysenteriae = assay: Agar-dilution MIC, anaerobe; format: cell-based; conditions: Brachyspira hyodysenteriae; agar-dilution method; anaerobic
Text: The A-2315 antibiotics are also active against anaerobic bacteria. In one aspect of this activity, the A-2315 antibiotics are active against Treponema hyodysenteriae, a cause of swine dysentery. The minimal concentrations of A-2315 factors which inhibit this organism, as determined by the agar-dilution method, are as follows: […]

Candida albicans = assay: Disc-plate MIC; conditions: Disc-Plate Method
[15] = 3 mg./chick, subcutaneous, at 14 Days, infected controls 7/7
[16] = surviving infected chickens, subcutaneous

With `CC1=CC(O)CC(O)Cc2nc(co2)C(=O)NC(C)C(=O)OC(C(C)C)C(C)C=CC(=O)NCC=C1` (stereo not shown) [Factor A] the MIC [1] was 0.2 μg/disc, the MIC (Salmonella typhosa) was 12.5 μg/disc and the “No. Died / No. in Group” value (Mycoplasma gallisepticum; 3 mg./chick, subcutaneous in neck, infected) was 12/20. The “Dead Chicks: Air-Sac Lesions” value (Mycoplasma gallisepticum; 3 mg./chick, subcutaneous, 3/9 not examined due to decomposition) was 9/9, the “Survivors: Air-Sac Lesions” value (Mycoplasma gallisepticum; [15]) was 0/8 and the “Survivors: MG Antibody” value (Mycoplasma gallisepticum; [15]) was 8/8. For the same compound, the “Survivors: Average Weight” value (Mycoplasma gallisepticum; 3 mg./chick, subcutaneous, at 14 Days, infected controls 100 gm., normal controls 214 gm.) was 133 gm, the signs of toxicity (Mycoplasma gallisepticum; infected chickens, in polyethylene glycol 200, subcutaneous in the neck) was “No signs of toxicity were seen, except for slight hemorrhage in the neck area in some of the treated chicks that died early” and the “incidence of air-sac lesions” value (Mycoplasma gallisepticum; [16]) was “lowered incidence of air-sac lesions”. The weight advantage (Mycoplasma gallisepticum; [16]) was “some weight advantage”, the ED50 ([2]; Test I, challenge 4000 × LD50 (ip)) was 90 mg/kg and the ED50 ([2]; Test II, challenge 3.16 × LD50 (ip)) was 45.7 mg/kg. For the same compound, the “effect on cariogenic organism in artificial plaque” value [3] was “effective”, the “protection of bean plants” value [4] was “protected” and the phytotoxicity ([4]; bean plants) was “Only slight phytotoxicity”. The “in vivo antimicrobial action” value [5] was “have shown in vivo antimicrobial action”, the titratable groups (Electrometric titration) was “did not indicate the presence of titratable groups” and the MIC [6] was 16 µg/mL (≈ 31.8 µM). The average weight gain ([7]; after 10 days, control 148 grams) was 159 grams, the “feed-conversion efficiency (feed/gain)” value ([7]; control 1.53) was 1.44 and the MIC (Streptococcus pyogenes [8]) was 0.012 μg/disc. It also gave an MIC (Fusobacterium nucleatum) of 128 µg/mL (≈ 254 µM), an ED50 (Streptococcus pyogenes [9]; Test I, challenge 10,000 × LD50 (ip)) of 83 mg/kg and an ED50 (Streptococcus pyogenes [9]; Test II) of 27.4 mg/kg. It also gave an MIC (Clostridium inocuum) of 32 µg/mL (≈ 63.5 µM), an MIC (Clostridium ramosum) of 8 µg/mL (≈ 15.9 µM) and an MIC [10] of less than 0.097 µg/mL. It also gave an MIC [11] of 0.195 µg/mL (≈ 0.387 µM), an MIC [12] of less than 0.097 µg/mL and an MIC [13] of 0.195 µg/mL (≈ 0.387 µM). For the same compound, the MIC [14] was 0.78 µg/mL (≈ 1.55 µM), the MIC (Bacillus subtilis) was 50. μg/disc and the MIC (Treponema hyodysenteriae) was less than 0.195 µg/mL. For the same compound, the MIC (Candida albicans) was 100.0 μg/disc.
